From US9481676B2, “Azepino[4,5-B]indoles and methods of use” (Medivation Technologies, Inc., priority 2008, dated 2016) come the findings set out here.

Assay [1] concerns the target T1, human recombinant histamine H1 receptor (Homo sapiens, UniProt P35367).
T1 construct: expressed in transfected cells; host or cells: CHO cells
Briefly: Histamine H1 radioligand binding ([3H]Pyrilamine). The conditions noted are these: compound at 1 μM; read-out: Histamine Binding (1 μM) H1, percent inhibition of specific binding. The method in brief:
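Membranes from CHO cells expressing the receptor were incubated with compound and 1.2 nM [3H]pyrilamine for 180 min at 25 °C in 50 mM Tris-HCl pH 7.4 with MgCl2, NaCl and sucrose; 1 μM pyrilamine defined non-specific binding. Filter-bound radioactivity was counted.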

The target of assay [2] is T2, human recombinant histamine H2 receptor (Homo sapiens, UniProt P25021).
T2 construct: expressed in transfected cells; host or cells: CHO-K1 cells
Briefly: Histamine H2 radioligand binding ([125I]Aminopotentidine). Particulars: compound at 1 μM; read-out: Histamine Binding (1 μM) H2, percent inhibition of specific binding. In outline:
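Membranes from CHO-K1 cells expressing recombinant human H2 receptor, in 50 mM phosphate buffer pH 7.4, incubated with 0.1 nM [125I]aminopotentidine for 120 min at 25 °C; nonspecific binding defined with 3 μM tiotidine.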

The target in assay [3] is T3, human recombinant adrenergic α2A receptor (Homo sapiens, UniProt P08913).
T3 construct: expressed in transfected cells; host or cells: insect Sf9 cells
T3 sequence (P08913 1-465): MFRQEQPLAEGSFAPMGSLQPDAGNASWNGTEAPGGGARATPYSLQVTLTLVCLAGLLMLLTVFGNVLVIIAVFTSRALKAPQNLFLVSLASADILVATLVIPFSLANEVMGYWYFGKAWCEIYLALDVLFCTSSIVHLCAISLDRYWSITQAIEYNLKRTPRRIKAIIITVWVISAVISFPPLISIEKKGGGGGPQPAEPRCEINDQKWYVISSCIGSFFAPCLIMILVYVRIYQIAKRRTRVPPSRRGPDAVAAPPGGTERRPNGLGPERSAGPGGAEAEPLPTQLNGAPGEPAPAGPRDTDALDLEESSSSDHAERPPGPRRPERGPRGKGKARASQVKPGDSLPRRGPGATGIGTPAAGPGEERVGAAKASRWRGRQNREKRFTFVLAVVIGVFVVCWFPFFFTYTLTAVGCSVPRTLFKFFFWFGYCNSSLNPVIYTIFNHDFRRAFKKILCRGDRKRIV
Briefly: Adrenergic alpha2A radioligand binding ([3H]MK-912). The conditions noted are these: compound at 1 μM; read-out: Adrenergic (1 μM) α2A, percent inhibition of specific binding. The method, then: To evaluate in radioligand binding assays the activity of compounds of the invention, human recombinant adrenergic α2A receptor expressed in insect Sf9 cells (Uhlen S et al. J Pharmacol Exp Ther. 271:1558, 1994) in a modified Tris-HCl buffer (50 mM Tris-HCl, pH 7.4, 12.5 mM MgCl2, 2 mM EDTA) was used. Compounds of invention were incubated with 1 nM [^3H]MK-912 for 60 min. at 25° C. MK912 is (2S-trans)-1,3,4,5′,6,6′,7,12b-octahydro-1′,3′-dimethyl-spiro[2 h-benzofuro [2,3-a]quinolizine-2,4′ (1′H)-pyrimidin]-2′ (3′H)-one hydrochloride Non-specific binding was estimated in the presence of 10 μM WB-4101 (2-(2,6-Dimethoxyphenoxyethyl)aminomethyl-1,4-benzodioxane hydrochloride). Receptor proteins were filtered and washed, the filters were then counted to determine [^3H]MK-912 specifically bound. Compounds were screened at 1 μM or lower, using 1% DMSO as vehicle. Biochemical assay results are presented as the percent inhibition of specific binding in Table 5.

Assay [4] addresses T4, human recombinant dopamine D2L receptor (Homo sapiens, UniProt P14416).
T4 construct: expressed in transfected cells; host or cells: CHO cells
Briefly: Dopamine D2L radioligand binding ([3H]Spiperone). The conditions noted are these: compound at 1 μM; read-out: Dopamine (1 μM) D2L, percent inhibition of specific binding. The method in brief:
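Human recombinant D2L receptor from CHO cells, in Tris-HCl buffer pH 7.4 with ascorbic acid, BSA and 150 mM NaCl; compounds at 1 μM or lower (1% DMSO) incubated with 0.16 nM [3H]spiperone, 120 min, 25° C. Nonspecific binding by 10 μM haloperidol; filter counting; % inhibition of specific binding.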

Assay [5] deals with T5, human recombinant serotonin (5-Hydroxytryptamine) 5-HT6 receptor (Homo sapiens, UniProt P50406).
T5 construct: expressed in transfected cells; host or cells: human HeLa cells
Briefly: Serotonin 5-HT6 radioligand binding ([3H]LSD). The conditions noted are these: compound at 1 μM; read-out: Serotonin (1 μM) 5-HT6, percent inhibition of specific binding. In outline:
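Human recombinant 5-HT6 receptor from HeLa cells incubated with 1.5 nM [3H]LSD for 120 min at 37° C in 50 mM Tris-HCl pH 7.4, 150 mM NaCl, 2 mM ascorbic acid, 0.001% BSA. Nonspecific binding defined with 5 μM serotonin; bound ligand counted after filtration.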

T5 sequence (P50406 whole entry): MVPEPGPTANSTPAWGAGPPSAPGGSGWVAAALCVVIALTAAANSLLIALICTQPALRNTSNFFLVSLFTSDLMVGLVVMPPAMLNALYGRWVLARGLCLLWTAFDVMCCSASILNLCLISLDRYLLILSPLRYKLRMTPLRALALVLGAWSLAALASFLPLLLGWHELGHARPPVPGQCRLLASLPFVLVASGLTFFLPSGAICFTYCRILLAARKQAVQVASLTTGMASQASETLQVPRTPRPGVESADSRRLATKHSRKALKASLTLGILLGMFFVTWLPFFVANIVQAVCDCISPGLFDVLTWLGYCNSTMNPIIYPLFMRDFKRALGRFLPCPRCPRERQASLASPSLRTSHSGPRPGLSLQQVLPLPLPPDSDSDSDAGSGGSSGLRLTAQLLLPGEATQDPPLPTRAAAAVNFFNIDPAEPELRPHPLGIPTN
T2 sequence (P25021 whole entry): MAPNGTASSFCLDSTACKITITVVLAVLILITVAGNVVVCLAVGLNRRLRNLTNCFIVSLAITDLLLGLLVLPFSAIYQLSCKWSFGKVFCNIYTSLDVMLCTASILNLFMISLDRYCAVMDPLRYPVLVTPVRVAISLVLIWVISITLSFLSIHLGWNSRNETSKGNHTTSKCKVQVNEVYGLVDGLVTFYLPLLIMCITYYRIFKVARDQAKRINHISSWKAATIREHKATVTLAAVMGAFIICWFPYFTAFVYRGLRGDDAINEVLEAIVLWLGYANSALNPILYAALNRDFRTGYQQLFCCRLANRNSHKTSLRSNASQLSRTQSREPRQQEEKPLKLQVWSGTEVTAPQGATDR
T4 sequence (P14416 whole entry): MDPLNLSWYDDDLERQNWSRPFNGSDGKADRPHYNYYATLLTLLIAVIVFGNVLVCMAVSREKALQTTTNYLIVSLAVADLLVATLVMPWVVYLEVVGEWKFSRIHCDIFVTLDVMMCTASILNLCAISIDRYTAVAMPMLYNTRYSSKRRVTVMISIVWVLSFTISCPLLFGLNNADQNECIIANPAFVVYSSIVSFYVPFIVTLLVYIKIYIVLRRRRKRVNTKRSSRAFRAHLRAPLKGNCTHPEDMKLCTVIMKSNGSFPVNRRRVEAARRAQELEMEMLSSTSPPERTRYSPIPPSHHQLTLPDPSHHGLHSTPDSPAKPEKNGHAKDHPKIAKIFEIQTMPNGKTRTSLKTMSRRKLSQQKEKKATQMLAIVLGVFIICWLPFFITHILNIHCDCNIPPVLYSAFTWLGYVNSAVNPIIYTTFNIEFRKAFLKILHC
T1 sequence (P35367 whole entry): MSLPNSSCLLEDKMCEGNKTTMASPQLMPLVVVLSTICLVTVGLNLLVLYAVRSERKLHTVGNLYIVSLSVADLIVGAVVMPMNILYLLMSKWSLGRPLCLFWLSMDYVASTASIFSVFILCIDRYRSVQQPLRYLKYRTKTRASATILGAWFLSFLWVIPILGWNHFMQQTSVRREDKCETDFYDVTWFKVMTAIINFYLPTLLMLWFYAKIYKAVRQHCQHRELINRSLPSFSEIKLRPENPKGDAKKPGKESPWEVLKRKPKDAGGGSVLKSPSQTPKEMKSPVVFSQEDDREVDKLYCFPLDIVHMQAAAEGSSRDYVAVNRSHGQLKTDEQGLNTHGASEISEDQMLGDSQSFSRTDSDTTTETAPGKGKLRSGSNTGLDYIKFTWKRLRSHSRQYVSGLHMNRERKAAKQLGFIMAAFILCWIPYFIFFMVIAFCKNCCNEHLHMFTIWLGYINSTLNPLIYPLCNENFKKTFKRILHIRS

By inhibition is commonly meant the change of the read-out against control, counted positive when it falls. For the molecule `Cc1ccc(C(O)Cn2c3c(c4cc(Cl)ccc42)CCN(C)CC3)cc1` (centres unmarked) [Compound No. 26, 2-(9-chloro-2,3,4,5-tetrahydro-3-methylazepino[4,5-b]indol-6(1H)-yl)-1-p-tolylethanol], the inhibition at 1 µM was 97% in assay [1]; 84% in assay [2]; 99% in assay [3]; 65% in assay [4]; 87% in assay [5].

For `CN1CCc2c(n(CC(O)c3ccccc3)c3ccc(Cl)cc23)CC1` (centres unmarked) [Compound No. 24, 2-(9-chloro-2,3,4,5-tetrahydro-3-methylazepino[4,5-b]indol-6(1H)-yl)-1-phenylethanol], the inhibition at 1 µM in assay [1] came to 100%; in assay [2], 58%; in assay [3], 100%; in assay [4], 41%; in assay [5], 99%.

`C/C(=C\n1c2c(c3cc(Cl)ccc31)CCN(C)CC2)c1ccc(Cl)cc1Cl` [Compound No. 239, (E)-9-chloro-6-(2-(2,4-dichlorophenyl)prop-1-enyl)-3-methyl-1,2,3,4,5,6-hexahydroazepino[4,5-b]indole]: the inhibition at 1 µM in assay [1] worked out at 91%; in assay [2] it was 89%; in assay [3], 93%; in assay [4], 9%; in assay [5], 59%.

For `CN1CCc2c(n(CC(O)c3ccc(F)cc3)c3ccc(Cl)cc23)CC1` (centres unmarked) [Compound No. 51, 2-(9-chloro-2,3,4,5-tetrahydro-3-methylazepino[4,5-b]indol-6(1H)-yl)-1-(4-fluorophenyl) ethanol], the inhibition at 1 µM turned out to be 102% in assay [1]; 70% in assay [2]; 98% in assay [3]; 30% in assay [4]; 94% in assay [5].

With `Cc1ccc2c(c1)c1c(n2CC(=O)N2CCOCC2)CCN(C)CC1` [Compound No. 38, 2-(2,3,4,5-tetrahydro-3,9-dimethylazepino[4,5-b]indol-6(1H)-yl)-1-morpholinoethanone], the inhibition at 1 µM in assay [1] was 83%; in assay [2], 26%; in assay [3] it was 77%; in assay [4] it was 21%; in assay [5], 41%.

Regarding `Cc1ccc2c(c1)c1c(n2CC(O)c2ccc(F)cc2)CCN(C)CC1` (centres unmarked) [Compound No. 52, 1-(4-fluorophenyl)-2-(2,3,4,5-tetrahydro-3,9-dimethylazepino[4,5-b]indol-6(1H)-yl)ethanol], the inhibition at 1 µM turned out to be 96% in assay [1]; 61% in assay [2]; 97% in assay [3]; 20% in assay [4]; 84% in assay [5].

Turning to `CN1CCc2c(n(CCc3ccccn3)c3ccc(Cl)cc23)CC1` [Compound No. 8, 9-chloro-1,2,3,4,5,6-hexahydro-3-methyl-6-(2-(pyridin-2-yl)ethyl)azepino[4,5-b]indole], the inhibition at 1 µM in assay [1] was 97%; in assay [2] it was 68%; in assay [3], 95%; in assay [4] it was 42%; in assay [5], 100%.

Turning to `Cc1ccc2c(c1)c1c(n2CCc2cncc(Cl)c2)CCN(C)CC1` [Compound No. 4, 6-(2-(5-chloropyridin-3-yl)ethyl)-1,2,3,4,5,6-hexahydro-3,9-dimethylazepino[4,5-b]indole], the inhibition at 1 µM stood at 100% in assay [1]; 59% in assay [2]; 85% in assay [3]; 2% in assay [4]; 83% in assay [5].

As to `CN1CCc2c(n(CC(=O)N(C)C3CCCCC3)c3ccc(Cl)cc23)CC1` [Compound No. 74, 2-(9-chloro-2,3,4,5-tetrahydro-3-methylazepino[4,5-b]indol-6(1H)-yl)-N-cyclohexyl-N-methylacetamide], the inhibition at 1 µM in assay [1] is 25%; in assay [2], 9%; in assay [3] it was 19%; in assay [4] it was -2%; in assay [5], -4%.

For `CC(C)NC(=O)Cn1c2c(c3cc(Cl)ccc31)CCN(C)CC2` [Compound No. 31, 2-(9-chloro-2,3,4,5-tetrahydro-3-methylazepino[4,5-b]indol-6(1H)-yl)-N-isopropylacetamide], the inhibition at 1 µM in assay [1] is 14%; in assay [2] it was -10%; in assay [3] it was 31%; in assay [4] it was 4%; in assay [5], 2%.

Consider `CN1CCc2c(n(CC(O)c3ccc(F)c(F)c3)c3ccc(Cl)cc23)CC1` (centres unmarked) [Compound No. 58, 2-(9-chloro-2,3,4,5-tetrahydro-3-methylazepino[4,5-b]indol-6(1H)-yl)-1-(3,4-difluorophenyl)ethanol], for which the inhibition at 1 µM amounted to 98% in assay [1]; 91% in assay [2]; 95% in assay [3]; 47% in assay [4]; 99% in assay [5].

Take `Cc1ccc2c(c1)c1c(n2CCc2ccccc2Cl)CCN(C)CC1` [Compound No. 69, 6-(2-chlorophenethyl)-1,2,3,4,5,6-hexahydro-3,9-dimethylazepino[4,5-b]indole]: the inhibition at 1 µM in assay [1] is 2%; in assay [2], -9%; in assay [3], 8%; in assay [4], -2%; in assay [5] it was -4%.

As to `CN1CCc2c(n(CC(C)(O)c3ccc(F)cc3)c3ccc(Cl)cc23)CC1` (centres unmarked) [Compound No. 13, 1-(9-chloro-2,3,4,5-tetrahydro-3-methylazepino[4,5-b]indol-6(1H)-yl)-2-(4-fluorophenyl)propan-2-ol], the inhibition at 1 µM in assay [1] came to 98%; in assay [2] it was 92%; in assay [3], 94%; in assay [4], 38%; in assay [5], 100%.

Consider `C=C(Cn1c2c(c3cc(Cl)ccc31)CCN(C)CC2)c1ccc(Cl)cc1` [Compound No. 35, 9-chloro-6-(2-(4-chlorophenyl)allyl)-3-methyl-1,2,3,4,5,6-hexahydroazepino[4,5-b]indole], for which the inhibition at 1 µM in assay [1] amounted to 100%; in assay [2] it was 104%; in assay [3] it was 93%; in assay [4] it was 50%; in assay [5], 102%.

Turning to `CN1CCc2c(n(CC(=O)N3CCCC3)c3ccc(Cl)cc23)CC1` [Compound No. 53, 2-(9-chloro-2,3,4,5-tetrahydro-3-methylazepino[4,5-b]indol-6(1H)-yl)-1-(pyrrolidin-1-yl)ethanone], the inhibition at 1 µM in assay [1] is 14%; in assay [2], 3%; in assay [3] it was 1%; in assay [4] it was 2%; in assay [5] it was -1%.

`CN1CCc2c(n(CCc3ccccc3F)c3ccccc23)CC1` [Compound No. 237, 6-(2-fluorophenethyl)-3-methyl-1,2,3,4,5,6-hexahydroazepino[4,5-b]indole]: the inhibition at 1 µM in assay [1] was found to be 96%; in assay [2], 81%; in assay [3] it was 98%; in assay [4] it was 50%; in assay [5], 103%.
